Experimental findings from ChEMBL document CHEMBL3425444, “Discovery of piperidin-4-yl-aminopyrimidine derivatives as potent non-nucleoside HIV-1 reverse transcriptase inhibitors” (Eur J Med Chem, 2015) are described below.

A value given as a limit tells only on which side of the number the result lay.

What is called EC50 is the concentration needed to bring the measured effect to its halfway point. As usually defined, the CC50 is the concentration at which the toxic effect on the cells reaches its halfway point. By IC50 is commonly meant the concentration that gives 50% inhibition.

The test system of data set [1] is Human immunodeficiency virus 1. Briefly: Antiviral activity against wild type HIV1 3B infected in human MT4 cells assessed as protection from virus-induced cytopathicity after 4 days by MTT assay. The data set is classed as functional, organism-based. The following applies: Human immunodeficiency virus 1, 3B, MT4, 96 h. In general terms: Cytopathic effects are the visible damage that an infection or toxin causes in cultured cells.

Data set [2] deals with Human immunodeficiency virus 1. Briefly: Antiviral activity against HIV-1 RES056 harboring reverse transcriptase K103N/Y181C double mutant infected in human MT4 cells assessed as protection from virus-induced cytopathicity after 4 days by MTT assay. It counts as functional, organism-based. The following applies: Human immunodeficiency virus 1, RES056, MT4, 96 h.
Data set [3] has as its system Human immunodeficiency virus 2. Put plainly: Antiviral activity against HIV-2 ROD infected in human MT4 cells assessed as protection from virus-induced cytopathicity after 4 days by MTT assay. It counts as functional, organism-based. The settings on record: Human immunodeficiency virus 2, ISOLATE ROD, MT4, 96 h.
Data set [4] is described as follows: Cytotoxicity against human MT4 cells assessed as reduction of cell viability after 4 days by MTT assay. The data set is classed as cell-based. For orientation: Formazan colour is commonly taken as a measure of viable cells.
Data set [5] in a line: Selectivity index, ratio of CC50 for human MT4 cells to EC50 for HIV1 3B infected in human MT4 cells. It counts as toxicity, cell-based. The following applies: HIV1 3B infected MT4 cells, read-out: Selectivity Index.
The target in data set [6] is Human immunodeficiency virus type 1 reverse transcriptase (Human immunodeficiency virus 1, UniProt Q72547). Put plainly: Inhibition of HIV1 recombinant wild type reverse transcriptase p66/p51 assessed as reduction in biotin-labeled dUTP incorporation into DNA using polyr(A) x oligo(dT)16 template/primer hybrid.
Data set [7] can be described thus: Retention time of the compound by HPLC analysis. The data set is classed as physicochemical.

On to `Cc1cc(C#N)cc(C)c1Oc1ccnc(NC2CCN(CC(=O)Nc3ccccc3)CC2)n1`, for which the figures for the EC50 in data set [1], in data set [2] and in data set [3] were 3.3 nM, above 1820 nM and above 1820 nM, respectively. Further, the CC50 at 96 h in data set [4] turned out to be 1820 nM. Also, the selectivity ratio in data set [5] is 551. Moreover, the IC50 in data set [6] came out at 199 nM. In data set [7], the Retention_time is recorded as 10.9 min.
